Test systems include CAKI-1; A549; SN12C; SK-MEL-5; ACHN; SK-MEL-2; KM12; EKVX; UACC-257; PC-3; TK-10; T47D; UACC-62; NCI-H23; MDA-N; K562; Hs-578T; MCF7; SNB-75; CCRF-CEM.
Common to all, as to assay: NCI-60 cell line screen, 48 h

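1) Cells in 96-well plates. 2) Compound, 48 h, 5 concentrations. 3) Linear interpolation between surrounding doses. 4) Unreached endpoint = highest concentration. GI50 marks 50% less growth.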 Activity calls are given as the source filed them. Cut-off read from the data, not from the text of the source: active = GI50 up to about 1.1 µM and inactive = higher.

As for `Cc1cc(OCC(=O)O)c(Cl)cc1Cl`, the GI50 with CAKI-1, with A549, in the test on SN12C, in the test on SK-MEL-5, in the test on ACHN and in the test with SK-MEL-2 was > 100 µM (inactive) throughout. In addition, the GI50 in the test on KM12, in the test on EKVX, with UACC-257, with PC-3, with TK-10 and in the test with T47D was > 100 µM (inactive) throughout. The GI50 in the test on UACC-62, in the test on NCI-H23, with MDA-N, in the test with K562 and in the test on Hs-578T was > 100 µM (inactive) throughout.

Consider `Cc1cc([N+](=O)[O-])c(C)c(Br)c1C`, for which the GI50 in the test with CAKI-1 is > 100 µM (inactive); in the test with A549 it was > 100 µM (inactive); with SN12C, > 100 µM (inactive); with MCF7 it was > 100 µM (inactive); in the test on SK-MEL-5 it was > 100 µM (inactive); in the test with SNB-75, 25.2 µM (inactive). In addition, the GI50 in the test with ACHN was > 100 µM (inactive); with SK-MEL-2, > 100 µM (inactive); with KM12, > 100 µM (inactive); in the test on EKVX, 70.8 µM (inactive); in the test with UACC-257, > 100 µM (inactive); in the test with PC-3, > 100 µM (inactive). Moreover, the GI50 with TK-10 is > 100 µM (inactive); in the test with T47D, 71 µM (inactive); in the test on UACC-62, > 100 µM (inactive); with NCI-H23, > 100 µM (inactive); in the test with MDA-N it was > 100 µM (inactive); in the test with K562 it was > 100 µM (inactive). Besides, the GI50 in the test with Hs-578T is 42.8 µM (inactive).

As for `COc1ccc(-c2csc(Cc3nc4c(Br)cc(Br)cc4c(=O)n3-c3ccc(OC)cc3)n2)cc1`, the GI50 in the test with CAKI-1 was 94.4 µM (inactive); in the test on A549 it was 63.2 µM (inactive); in the test on CCRF-CEM it was < 0.01 µM (active); in the test on MCF7, 63.1 µM (inactive); with SK-MEL-5, 20.3 µM (inactive); in the test on SNB-75 it was > 100 µM (inactive). For the same molecule, the GI50 in the test on ACHN was 43.7 µM (inactive); in the test with SK-MEL-2, 48 µM (inactive); with KM12, 86.5 µM (inactive); with EKVX, > 100 µM (inactive); in the test with UACC-257 it was > 100 µM (inactive); with PC-3, 28.9 µM (inactive). The GI50 in the test on TK-10 is 56.6 µM (inactive); in the test on UACC-62, 53.3 µM (inactive); in the test with NCI-H23 it was 96.2 µM (inactive); with MDA-N, 3.7 µM (inactive); with K562, 0.333 µM (active); with Hs-578T, > 100 µM (inactive).

`CCCCCCCC(CC(=O)NC(CO)C(=O)NC(CO)CC(C)C)OC(=O)CC(CCCCCCC)OC(=O)CC(CCCCCCC)OC1OC(C)C(O)C(OC2OC(C)C(O)C(OC(C)=O)C2O)C1O` (stereo not drawn): the GI50 in the test with CAKI-1 was 15.7 µM (inactive); in the test with A549 it was 12.5 µM (inactive); with SN12C, 7.05 µM (inactive); with CCRF-CEM it was 5.2 µM (inactive); in the test on MCF7, 11.9 µM (inactive); with SK-MEL-5, 12.6 µM (inactive). The GI50 in the test with SNB-75 was 5.56 µM (inactive); in the test on ACHN, 17.2 µM (inactive); with KM12, 8.99 µM (inactive); in the test on EKVX, 15.3 µM (inactive); with UACC-257, 5.77 µM (inactive); with PC-3, 7.6 µM (inactive). The GI50 is 15.6 µM (inactive) in the test on TK-10; 12.9 µM (inactive) in the test on T47D; 12.9 µM (inactive) with UACC-62; 14.2 µM (inactive) in the test on NCI-H23; 5.41 µM (inactive) in the test with MDA-N; 12.4 µM (inactive) in the test with K562. Besides, the GI50 with Hs-578T is 4.1 µM (inactive).

`COc1cc2oc(-c3ccc4c(c3)OCO4)c(OC)c(=O)c2c(OC)c1O`: the GI50 in the test with CAKI-1 was > 100 µM (inactive); in the test on A549 it was 48.1 µM (inactive); with SN12C it was 71.8 µM (inactive); in the test on CCRF-CEM, 34.7 µM (inactive); with MCF7, 69.7 µM (inactive); with SK-MEL-5, 25.4 µM (inactive). In addition, the GI50 with SNB-75 is 33.2 µM (inactive); in the test on ACHN, 67.8 µM (inactive); with KM12 it was > 100 µM (inactive); in the test on EKVX it was 37.6 µM (inactive); in the test with UACC-257, > 100 µM (inactive); in the test with PC-3, 68.5 µM (inactive). The GI50 with TK-10 was 56.4 µM (inactive); in the test with T47D it was 31.5 µM (inactive); in the test on UACC-62, 54.3 µM (inactive); with NCI-H23 it was > 100 µM (inactive); in the test on MDA-N it was > 100 µM (inactive); in the test on K562 it was 34.4 µM (inactive). Also, the GI50 in the test with Hs-578T was 61 µM (inactive).

As to `Clc1nc(Cl)nc(NC23CC4CC(CC(C4)C2)C3)n1`, the GI50 in the test on CAKI-1 was 8.09 µM (inactive); with A549 it was 20 µM (inactive); in the test on SN12C, 18.1 µM (inactive); in the test with CCRF-CEM, 7.55 µM (inactive); in the test on MCF7, 32.1 µM (inactive); in the test on SK-MEL-5, 13.7 µM (inactive). Also, the GI50 is 17.5 µM (inactive) with SNB-75; 35.3 µM (inactive) in the test with ACHN; 14.9 µM (inactive) in the test on KM12; 19.5 µM (inactive) in the test on EKVX; 17.3 µM (inactive) in the test on UACC-257; > 34.8 µM (inactive) with PC-3. Besides, the GI50 in the test with TK-10 is 17.7 µM (inactive); in the test on T47D, 17.2 µM (inactive); in the test with UACC-62 it was 17.9 µM (inactive); in the test with NCI-H23 it was 18.5 µM (inactive); in the test on MDA-N, 17.4 µM (inactive); in the test with K562, 13.7 µM (inactive). Also, the GI50 in the test on Hs-578T was 11.8 µM (inactive).

In the case of `C(=N\NC1=NCCN1)/c1cccc2cc3ccncc3nc12`, the GI50 is 2.84 µM (inactive) in the test with CAKI-1; 6.76 µM (inactive) in the test on A549; 3.15 µM (inactive) in the test with SN12C; 1.1 µM (active) in the test with CCRF-CEM; 3.16 µM (inactive) in the test on MCF7; 9.51 µM (inactive) with SK-MEL-5. For the same molecule, the GI50 was 0.259 µM (active) in the test with SNB-75; 2.84 µM (inactive) in the test on ACHN; 5.73 µM (inactive) with KM12; 2.86 µM (inactive) in the test with EKVX; 9.89 µM (inactive) in the test on UACC-257; 3.67 µM (inactive) in the test with PC-3. The GI50 in the test with TK-10 is 10.4 µM (inactive); in the test on T47D, 2.14 µM (inactive); in the test on UACC-62, 3.43 µM (inactive); in the test on NCI-H23, 11.5 µM (inactive); with MDA-N, 2.89 µM (inactive); in the test on K562, 1.36 µM (inactive). Also, in the test on Hs-578T, the GI50 is 3.94 µM (inactive).

With `CC(/C=N\NC(=S)N(C)C)=N/NC(=S)N(C)C`, the GI50 with CAKI-1 is 0.815 µM (active); in the test with A549, 0.142 µM (active); in the test on SN12C it was 0.951 µM (active); in the test with MCF7 it was 0.759 µM (active); with SK-MEL-5 it was 0.505 µM (active); with SNB-75, 0.557 µM (active). For the same molecule, the GI50 in the test on ACHN was 0.113 µM (active); in the test on SK-MEL-2, 0.303 µM (active); in the test with KM12 it was 1.78 µM (inactive); in the test with EKVX, 0.832 µM (active); with UACC-257, 2.61 µM (inactive); with PC-3, 0.577 µM (active). Moreover, the GI50 with TK-10 is 0.507 µM (active); with T47D, 0.0935 µM (active); in the test with UACC-62, 0.764 µM (active); in the test with NCI-H23, 1.12 µM (inactive); with MDA-N it was 8.93 µM (inactive); with K562, 0.582 µM (active). In the test on Hs-578T, the GI50 was 1.65 µM (inactive).

For `C=C(C)CCC1C=[N+]([O-])OC(C)(C)C1(C)C` (stereo not drawn), the GI50 is > 100 µM (inactive) in the test on CAKI-1; 49.3 µM (inactive) in the test on A549; > 100 µM (inactive) in the test on SN12C; 33.3 µM (inactive) with CCRF-CEM; 73.5 µM (inactive) in the test with MCF7; > 100 µM (inactive) in the test with SK-MEL-5. Also, the GI50 in the test on SNB-75, in the test on ACHN, in the test with KM12, with EKVX, in the test on UACC-257 and in the test with TK-10 was > 100 µM (inactive) each time. Further, the GI50 in the test with T47D is > 100 µM (inactive); with UACC-62 it was 79.1 µM (inactive); in the test on MDA-N, > 100 µM (inactive); in the test with K562, > 100 µM (inactive); with Hs-578T it was > 100 µM (inactive).

With `O=c1[nH]nc(Cc2ccccc2)n1/N=C/c1ccccc1O`, the GI50 in the test on CAKI-1, with A549, in the test on SN12C, in the test with CCRF-CEM, in the test on MCF7 and in the test with SK-MEL-5 was > 100 µM (inactive) each time. Besides, the GI50 in the test with ACHN, in the test on SK-MEL-2, in the test on KM12, in the test with EKVX, in the test with UACC-257 and in the test with TK-10 was > 100 µM (inactive) each time. The GI50 in the test with T47D was > 100 µM (inactive); in the test on UACC-62, > 100 µM (inactive); with NCI-H23 it was > 100 µM (inactive); with MDA-N it was > 100 µM (inactive); in the test on K562 it was > 100 µM (inactive); in the test on Hs-578T, 51.9 µM (inactive).

Turning to `Cc1ccc2c(c1)NC(=O)CC(c1ccccc1)=N2`, the GI50 is > 100 µM (inactive) with CAKI-1; 81.7 µM (inactive) in the test with A549; > 100 µM (inactive) in the test with SN12C; 71.8 µM (inactive) in the test with MCF7; 40 µM (inactive) in the test with SK-MEL-5; 76.7 µM (inactive) with SNB-75. Further, the GI50 with ACHN is > 100 µM (inactive); in the test on SK-MEL-2, > 100 µM (inactive); in the test with KM12, 43.9 µM (inactive); in the test with EKVX it was > 100 µM (inactive); with UACC-257, > 100 µM (inactive); with PC-3, 97.1 µM (inactive). Moreover, the GI50 is > 100 µM (inactive) in the test with TK-10; 70.6 µM (inactive) in the test with T47D; > 100 µM (inactive) in the test with UACC-62; > 100 µM (inactive) with NCI-H23; 23.7 µM (inactive) in the test on MDA-N; 5.18 µM (inactive) in the test with K562. For the same molecule, in the test on Hs-578T, the GI50 was > 100 µM (inactive).

These data come from ChEMBL document CHEMBL1201862, “PubChem BioAssay data set” (2004).
